Results from patent publication US20150322033A1, “ANTIBACTERIAL AGENT” (priority 2012, published 2015).
Converted amounts (≈) assume the structure as drawn. Where two headings read alike, the source gives them in different places.

Key:
GyrA(wt) + GyrB(wt) = target: T1, GyrA(wt) + GyrB(wt) (Staphylococcus aureus, UniProt P20831); test: DNA cleavage assay with GyrA(wt) and GyrB(wt); type: biochemical
T1 construct: made in house; host or cells: E. coli BL21(DE3)
Text: The gene sequence encoding the wild-type GyrA of Staphylococcus aureus (henceforth also referred to as “GyrA(wt)”) shown as SEQ ID NO: 1 was cloned into the plasmid pMAL-c2 (produced by New England Biolabs) (the resultant is henceforth also referred to as “pMAL-c2-gyrA”).
The gene sequence encoding the wild-type GyrB of Staphylococcus aureus (henceforth also referred to as “GyrB(wt)”) shown as SEQ ID NO: 2 was cloned into the plasmid pMAL-c2 (produced by New England Biolabs) (the resultant is henceforth also referred to as “pMAL-c2-gyrB”).
E. coliBL21(DE3) (produced by Invitrogen) was transformed with pMAL-c2-gyrA mentioned above, with pMAL-c2-gyrB mentioned above, or with pMAL-c2-SAGAmut84 containing a mutant gyrA encoding the amino acid sequence of GyrA(wt) in which serine residue at the 84th position from the amino terminus is substituted with a leucine residue (see, Hiramatsu K., Igarashi M., Morimoto Y, Baba T., Umekita M., Akamatsu Y., Int. J. Antimicrob. Agents, 2012 June; 39(6), 478-85). To the culture medium of the resulting transformed Escherichia coli, 1 mM […] (produced by Wako Pure Chemical Industries) was added to induce expression of maltose-binding GyrA(wt), maltose-binding GyrB(wt), or maltose-binding mutant GyrA(S84L), and the bacterium was cultured overnight at 25° C. After completion of the culture, the cells were collected, and suspended in a buffer (20 mM Tris-HCl (pH 8.0), 200 mM sodium chloride, 1 mM ethylenediaminetetraacetic acid (EDTA), 1 mM dithiothreitol (DTT)), a protein extracting reagent (10× BugBuster (registered trademark), produced by Novagen) in a volume of 1/10 of the volume of the buffer, and 2.5 μL/10 mL of the buffer of Benzonase (registered trademark) nuclease (produced by Novagen) were added, the mixture was left standing at 25° C. for 30 minutes, and the cells were disrupted and lysed to obtain a disrupted cell suspension containing the maltose-binding GyrA(wt), maltose-binding GyrB(wt), or maltose-binding mutant GyrA(S84L).
Then, each disrupted cell suspension mentioned above was added to a column filled with an amylose resin covalently bound with maltose (produced by Novagen). A buffer (20 mM Tris-HCl (pH 8.0), 200 mM sodium chloride, 1 mM EDTA) containing 10 mM maltose was added to the column to elute the maltose-binding GyrA(wt), maltose-binding GyrB(wt), and maltose-binding mutant GyrA(S84L).
To each eluate, 4 units/1 mL of the eluate of protease (Factor Xa, produced by Amersham) was added, and the mixture was left standing at 25° C. for 3 hours and 30 minutes to cleave the maltose-binding proteins, GyrA(wt), GyrB(wt), and mutant GyrA(S84L) from the maltose-binding GyrA(wt), maltose-binding GyrB(wt), and maltose-binding mutant GyrA(S84L).
Then, GyrA(wt), GyrB(wt), and mutant GyrA(S84L) were concentrated by using an ultrafiltration unit (YM-50 Filter Unit, produced by Millipore).
The concentrated GyrA(wt), GyrB(wt), and mutant GyrA(S84L) were each suspended in a buffer (35 mM Tris-HCl (pH 7.5), 24 mM potassium chloride, 6 mM magnesium chloride, 1.8 mM spermidine, 0.36 mg/mL bovine serum albumin, 5 mM DTT, 50 volume % glycerol) at a concentration of 1 μg/μL for GyrA(wt), 2 μg/μL for GyrB(wt), or 1 μg/μL for mutant GyrA(S84L).
A substrate plasmid DNA, pTWV228 (0.4 μg, produced by Takara Bio), and levofloxacin (LVFX) or apigenin were added to a buffer (35 mM Tris-HCl (pH 7.5), 24 mM potassium chloride, 6 mM magnesium chloride, 1.8 mM spermidine, 0.36 mg/mL bovine serum albumin, 5 mM DTT), and 0.15 μL of the enzyme solution of GyrA(wt) and […] of the enzyme solution of GyrB(wt) were added to the mixture to prepare a reaction mixture in a total volume of 20
Levofloxacin was added at a final concentration of 0, 0.5, 1, 2, 4, 8, 16, or 32 μg/mL.
The aforementioned reaction solution was left standing at 25° C. for 30 minutes to allow the reaction. […]

[1] = test system: S. aureus FDA209P (ATCC 6538P); test: microbe, parasite or virus in culture; type: cell-based, Staphylococcus aureus; conditions: Staphylococcus aureus
Procedure, shortened: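 Overnight TSB cultures at 37 °C adjusted to A578 0.3, diluted 500-fold in CAMHB and mixed 1:1 with compound in CAMHB; static overnight incubation at 37 °C. MIC reported in mg/L; Mu50 NR-1 also tested in some runs.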

[2] = Example 2, Table 12, read-out: MIC (mg/L) S. aureus FDA209P
[3] = Example 3, Table 13, read-out: MIC (mg/L) FDA209P (w, w)

Row | Compound | Ratio of cleaved DNA (%) (GyrA(wt) + GyrB(wt); 2 μg/mL, Table 14) | Ratio of substrate plasmid DNA (%) (GyrA(wt) + GyrB(wt); 2 μg/mL, Table 14) | Ratio of cleaved DNA (%) (GyrA(wt) + GyrB(wt); 4 μg/mL, Table 14) | Ratio of substrate plasmid DNA (%) (GyrA(wt) + GyrB(wt); 4 μg/mL, Table 14) | Ratio of cleaved DNA (%) (GyrA(wt) + GyrB(wt); 8 μg/mL, Table 14) | Ratio of substrate plasmid DNA (%) (GyrA(wt) + GyrB(wt); 8 μg/mL, Table 14) | Ratio of cleaved DNA (%) (GyrA(wt) + GyrB(wt); 16 μg/mL, Table 14) | Ratio of substrate plasmid DNA (%) (GyrA(wt) + GyrB(wt); 16 μg/mL, Table 14) | Ratio of cleaved DNA (%) (GyrA(wt) + GyrB(wt); 32 μg/mL, Table 14) | Ratio of substrate plasmid DNA (%) (GyrA(wt) + GyrB(wt); 32 μg/mL, Table 14) | MIC [1, 2] | MIC [1, 3] | other results
1 | C[C@H]1COc2c(N3CCN(C)CC3)c(F)cc3c(=O)c(C(=O)O)cn1c23 [Levofloxacin, levofloxacin, reference compound] | 58% | 42% | 61% | 39% | 64% | 36% | 70% | 30% | 67% | 33% | 0.125 mg/L (≈ 0.346 µM) | 0.125 mg/L (≈ 0.346 µM) | Ratio of cleaved DNA (%) (GyrA(wt) + GyrB(wt); 0.5 μg/mL, Table 14): 32%; Ratio of substrate plasmid DNA (%) (GyrA(wt) + GyrB(wt); 0.5 μg/mL, Table 14): 68%; Ratio of cleaved DNA (%) (GyrA(wt) + GyrB(wt); 1 μg/mL, Table 14): 43%; Ratio of substrate plasmid DNA (%) (GyrA(wt) + GyrB(wt); 1 μg/mL, Table 14): 57%; Ratio of cleaved DNA (%) (GyrA(wt) + GyrB(wt); 4 μg/mL, Table 18): 73%; Ratio of substrate plasmid DNA (%) (GyrA(wt) + GyrB(wt); 4 μg/mL, Table 18): 27%; IC50 (GyrA(wt) + GyrB(wt); Example 4, Table 14, from ratio of cleaved DNA, read-out: IC50 (μg/mL) GyrA(wt) + GyrB(wt) (converted)): 5.53 µM
2 | O=c1cc(-c2ccc(O)cc2)oc2cc(O)cc(O)c12 [No. 7, 4′,5,7-Trihydroxyflavone] | 34% | 66% | 35% | 65% | 36% | 64% | 35% | 65% | 40% | 60% | > 128 mg/L | > 128 mg/L | Ratio of cleaved DNA (%) (GyrA(wt) + GyrB(wt); 64 μg/mL, Table 14): 43%; Ratio of substrate plasmid DNA (%) (GyrA(wt) + GyrB(wt); 64 μg/mL, Table 14): 57%; inhibitory activity against the wild-type DNA gyrase (GyrA(wt) + GyrB(wt); FIG. 1 and 2): did not exhibit any inhibitory activity; IC50 (GyrA(wt) + GyrB(wt); IC50 (μg/mL) GyrA(wt) + GyrB(wt), Example 4, Table 14, from ratio of cleaved DNA): > 474 µM; IC50 (GyrA(wt) + GyrB(wt); IC50 GyrA(wt) and GyrB(wt), value in μM): > 474 µM; MIC ([1]; Example 1, Tables 1 to 10, read-out: MIC (mg/L) FDA209P): > 128 mg/L
